# Columns and labels:
# Format in all cases: functional
# [1] = tested on: Bacillus subtilis; experiment: Antibacterial activity against Bacillus subtilis 168 after 18 hrs by broth microdilution method; details: subsp. subtilis str. 168, 18 h
# [2] = tested on: Staphylococcus aureus; experiment: Antibacterial activity against Staphylococcus aureus ATCC 29213 after 18 hrs by broth microdilution method; details: ATCC 29213, 18 h
# [3] = tested on: Enterococcus faecalis; experiment: Antibacterial activity against Enterococcus faecalis ATCC 29212 after 18 hrs by broth microdilution method; details: ATCC 29212, 18 h
# [4] = tested on: Staphylococcus aureus; experiment: Antibacterial activity against methicillin-resistant Staphylococcus aureus ATCC BAA1720 after 18 hrs by broth microdilution method; details: ATCC BAA1720, 18 h
# [5] = tested on: Staphylococcus aureus; experiment: Antibacterial activity against methicillin-resistant Staphylococcus aureus ATCC 33591 after 18 hrs by broth microdilution method; details: ATCC 33591, 18 h
# [6] = tested on: Staphylococcus aureus; experiment: Antibacterial activity against methicillin-resistant Staphylococcus aureus ATCC 43300 after 18 hrs by broth microdilution method; details: ATCC 43300, 18 h
# [7] = tested on: Enterococcus faecalis; experiment: Antibacterial activity against vancomycin-resistant Enterococcus faecalis ATCC 51575 after 18 hrs by broth microdilution method; details: ATCC 51575, 18 h
# [8] = tested on: Enterococcus faecalis; experiment: Antibacterial activity against vancomycin-resistant Enterococcus faecalis ATCC 700221 after 18 hrs by broth microdilution method; details: ATCC 700221, 18 h
# [9] = tested on: Staphylococcus aureus; experiment: Antibacterial activity against methicillin-resistant Staphylococcus aureus isolate 1428 after 18 hrs by broth microdilution method; details: isolate 1428, 18 h
# [10] = tested on: Staphylococcus aureus; experiment: Antibacterial activity against methicillin-resistant Staphylococcus aureus isolate 8162 after 18 hrs by broth microdilution method; details: isolate 8162, 18 h
# [11] = tested on: Staphylococcus aureus; experiment: Antibacterial activity against methicillin-resistant Staphylococcus aureus isolate 3123 after 18 hrs by broth microdilution method; details: isolate 3123, 18 h
# [12] = tested on: Staphylococcus aureus; experiment: Antibacterial activity against methicillin-resistant Staphylococcus aureus isolate 7717 after 18 hrs by broth microdilution method; details: isolate 7717, 18 h
# [13] = tested on: Staphylococcus aureus; experiment: Antibacterial activity against methicillin-resistant Staphylococcus aureus isolate 2671 after 18 hrs by broth microdilution method; details: isolate 2671, 18 h
# [14] = tested on: Staphylococcus aureus; experiment: Antibacterial activity against methicillin-resistant Staphylococcus aureus isolate 3170 after 18 hrs by broth microdilution method; details: isolate 3170, 18 h
# [15] = tested on: Staphylococcus aureus; experiment: Antibacterial activity against methicillin-resistant Staphylococcus aureus isolate 4127 after 18 hrs by broth microdilution method; details: isolate 4127, 18 h
# [16] = tested on: Staphylococcus aureus; experiment: Antibacterial activity against methicillin-resistant Staphylococcus aureus isolate 7971 after 18 hrs by broth microdilution method; details: isolate 7971, 18 h
# [17] = tested on: Staphylococcus aureus; experiment: Antibacterial activity against methicillin-resistant Staphylococcus aureus isolate 7807 after 18 hrs by broth microdilution method; details: isolate 7807, 18 h
# [18] = tested on: Staphylococcus aureus; experiment: Antibacterial activity against methicillin-resistant Staphylococcus aureus isolate 7943 after 18 hrs by broth microdilution method; details: isolate 7943, 18 h
# [19] = tested on: Staphylococcus aureus; experiment: Antibacterial activity against methicillin-resistant Staphylococcus aureus isolate 1610 after 18 hrs by broth microdilution method; details: isolate 1610, 18 h
# [20] = tested on: Staphylococcus aureus; experiment: Antibacterial activity against methicillin-resistant Staphylococcus aureus isolate 6334 after 18 hrs by broth microdilution method; details: isolate 6334, 18 h
# [21] = tested on: Staphylococcus aureus; experiment: Antibacterial activity against methicillin-resistant Staphylococcus aureus isolate 7864 after 18 hrs by broth microdilution method; details: isolate 7864, 18 h
# [22] = tested on: Staphylococcus aureus; experiment: Antibacterial activity against methicillin-resistant Staphylococcus aureus isolate 7972 after 18 hrs by broth microdilution method; details: isolate 7972, 18 h
# [23] = tested on: Staphylococcus aureus; experiment: Antibacterial activity against methicillin-resistant Staphylococcus aureus isolate 1220 after 18 hrs by broth microdilution method; details: isolate 1220, 18 h
# [24] = tested on: Staphylococcus aureus; experiment: Antibacterial activity against methicillin-resistant Staphylococcus aureus isolate 6515 after 18 hrs by broth microdilution method; details: isolate 6515, 18 h
# [25] = tested on: Staphylococcus aureus; experiment: Antibacterial activity against methicillin-resistant Staphylococcus aureus isolate 4023 after 18 hrs by broth microdilution method; details: isolate 4023, 18 h
# [26] = tested on: Staphylococcus aureus; experiment: Antibacterial activity against methicillin-resistant Staphylococcus aureus isolate 7960 after 18 hrs by broth microdilution method; details: isolate 7960, 18 h
# [27] = tested on: Staphylococcus aureus; experiment: Antibacterial activity against methicillin-resistant Staphylococcus aureus isolate 4955 after 18 hrs by broth microdilution method; details: isolate 4955, 18 h
# [28] = tested on: Staphylococcus aureus; experiment: Antibacterial activity against methicillin-resistant Staphylococcus aureus isolate 5395 after 18 hrs by broth microdilution method; details: isolate 5395, 18 h
# [29] = tested on: Staphylococcus aureus; experiment: Antibacterial activity against methicillin-resistant Staphylococcus aureus isolate 7844 after 18 hrs by broth microdilution method; details: isolate 7844, 18 h
# [30] = tested on: Staphylococcus aureus; experiment: Antibacterial activity against methicillin-resistant Staphylococcus aureus isolate 2158 after 18 hrs by broth microdilution method; details: isolate 2158, 18 h
# [31] = tested on: Staphylococcus aureus; experiment: Antibacterial activity against methicillin-resistant Staphylococcus aureus isolate 2350 after 18 hrs by broth microdilution method; details: isolate 2350, 18 h
# [32] = tested on: Staphylococcus aureus; experiment: Antibacterial activity against methicillin-resistant Staphylococcus aureus isolate 7664 after 18 hrs by broth microdilution method; details: isolate 7664, 18 h
# [33] = tested on: Staphylococcus aureus; experiment: Antibacterial activity against methicillin-resistant Staphylococcus aureus isolate 7587 after 18 hrs by broth microdilution method; details: isolate 7587, 18 h
# [34] = tested on: Staphylococcus aureus; experiment: Antibacterial activity against methicillin-resistant Staphylococcus aureus isolate 4548 after 18 hrs by broth microdilution method; details: isolate 4548, 18 h
# [35] = tested on: Staphylococcus aureus; experiment: Antibacterial activity against methicillin-resistant Staphylococcus aureus isolate 5056 after 18 hrs by broth microdilution method; details: isolate 5056, 18 h
# [36] = tested on: Staphylococcus aureus; experiment: Antibacterial activity against methicillin-resistant Staphylococcus aureus isolate 7434 after 18 hrs by broth microdilution method; details: isolate 7434, 18 h
# [37] = tested on: Staphylococcus aureus; experiment: Antibacterial activity against methicillin-resistant Staphylococcus aureus isolate 7449 after 18 hrs by broth microdilution method; details: isolate 7449, 18 h
# [38] = tested on: Staphylococcus aureus; experiment: Antibacterial activity against methicillin-resistant Staphylococcus aureus isolate 7183 after 18 hrs by broth microdilution method; details: isolate 7183, 18 h
# [39] = tested on: Staphylococcus epidermidis; experiment: Potency index, ratio of berberine MIC to test compound MIC for Staphylococcus epidermidis ATCC 12228
# [40] = tested on: Staphylococcus aureus; experiment: Potency index, ratio of methicillin MIC to test compound MIC for methicillin-resistant Staphylococcus aureus ATCC BAA1720
# [41] = tested on: Staphylococcus aureus; experiment: Potency index, ratio of methicillin MIC to test compound MIC for methicillin-resistant Staphylococcus aureus ATCC 33591
# [42] = tested on: Staphylococcus aureus; experiment: Potency index, ratio of methicillin MIC to test compound MIC for methicillin-resistant Staphylococcus aureus ATCC 33592
# [43] = tested on: Staphylococcus aureus; experiment: Potency index, ratio of methicillin MIC to test compound MIC for methicillin-resistant Staphylococcus aureus ATCC 43300
# [44] = tested on: Staphylococcus aureus; experiment: Bactericidal activity against methicillin-resistant Staphylococcus aureus ATCC BAA41 after 18 hrs by broth microdilution method; details: ATCC BAA41, 18 h
# [45] = tested on: Staphylococcus aureus; experiment: Bactericidal activity against methicillin-resistant Staphylococcus aureus ATCC 43300 after 18 hrs by broth microdilution method; details: ATCC 43300, 18 h
# [46] = tested on: Enterococcus faecalis; experiment: Bactericidal activity against vancomycin-resistant Enterococcus faecalis ATCC 700221 after 18 hrs by broth microdilution method; details: ATCC 700221, 18 h
# [47] = tested on: Enterococcus faecalis; experiment: Ratio of MBC to MIC for vancomycin-resistant Enterococcus faecalis ATCC 700221
compound,measurement,setting,value
COc1cccc(OC)c1C(=O)N[C@@H]1C(=O)N2[C@@H]1SC(C)(C)[C@@H]2C(=O)O [METHICILLIN],MIC90,[1],0.5 µg/mL
same,MIC90,[2],1 µg/mL
same,MIC90,[3],6 µg/mL
same,MIC90,[4],> 192 µg/mL
same,MIC90,[5],> 192 µg/mL
same,MIC90,[6],> 192 µg/mL
same,MIC90,[7],6 µg/mL
same,MIC90,[8],6 µg/mL
same,MIC90,[9],> 64 µg/mL
same,MIC90,[10],> 64 µg/mL
same,MIC90,[11],> 64 µg/mL
same,MIC90,[12],> 64 µg/mL
same,MIC90,[13],> 64 µg/mL
same,MIC90,[14],> 64 µg/mL
same,MIC90,[15],> 64 µg/mL
same,MIC90,[16],> 64 µg/mL
same,MIC90,[17],> 64 µg/mL
same,MIC90,[18],> 64 µg/mL
same,MIC90,[19],> 64 µg/mL
same,MIC90,[20],> 64 µg/mL
same,MIC90,[21],> 64 µg/mL
same,MIC90,[22],> 64 µg/mL
same,MIC90,[23],> 64 µg/mL
same,MIC90,[24],> 64 µg/mL
same,MIC90,[25],> 64 µg/mL
same,MIC90,[26],> 64 µg/mL
same,MIC90,[27],> 64 µg/mL
same,MIC90,[28],> 64 µg/mL
same,MIC90,[29],> 64 µg/mL
same,MIC90,[30],> 64 µg/mL
same,MIC90,[31],> 64 µg/mL
same,MIC90,[32],> 64 µg/mL
same,MIC90,[33],> 64 µg/mL
same,MIC90,[34],> 64 µg/mL
same,MIC90,[35],> 64 µg/mL
same,MIC90,[36],> 64 µg/mL
same,MIC90,[37],> 64 µg/mL
same,MIC90,[38],> 64 µg/mL
FC(F)(F)c1ccc(CN2CCCN(CCc3cc(-c4cccs4)nc(-c4ccncc4)n3)CC2)cc1,MIC90,[1],4 µg/mL
same,MIC90,[2],4 µg/mL
same,MIC90,[3],4 µg/mL
same,Ratio,[39],50 - 100
same,MIC90,[4],4 µg/mL
same,MIC90,[5],4 µg/mL
same,MIC90,[6],4 µg/mL
same,MIC90,[7],4 µg/mL
same,MIC90,[8],4 µg/mL
same,Ratio,[40],>100
same,Ratio,[41],>100
same,Ratio,[42],>100
same,Ratio,[43],>100
same,MIC90,[9],4 µg/mL
same,MIC90,[10],4 µg/mL
same,MIC90,[11],4 µg/mL
same,MIC90,[12],4 µg/mL
same,MIC90,[13],4 µg/mL
same,MIC90,[14],8 µg/mL
same,MIC90,[15],4 µg/mL
same,MIC90,[16],4 µg/mL
same,MIC90,[17],4 µg/mL
same,MIC90,[18],4 µg/mL
same,MIC90,[19],8 µg/mL
same,MIC90,[20],4 µg/mL
same,MIC90,[21],4 µg/mL
same,MIC90,[22],4 µg/mL
same,MIC90,[23],4 µg/mL
same,MIC90,[24],4 µg/mL
same,MIC90,[25],4 µg/mL
same,MIC90,[26],4 µg/mL
same,MIC90,[27],4 µg/mL
same,MIC90,[28],4 µg/mL
same,MIC90,[29],4 µg/mL
same,MIC90,[30],4 µg/mL
same,MIC90,[31],4 µg/mL
same,MIC90,[32],4 µg/mL
same,MIC90,[33],4 µg/mL
same,MIC90,[34],4 µg/mL
same,MIC90,[35],4 µg/mL
same,MIC90,[36],8 µg/mL
same,MIC90,[37],4 µg/mL
same,MIC90,[38],4 µg/mL
same,MBC,[44],4 µg/mL
same,MBC,[45],8 µg/mL
same,MBC,[46],8 µg/mL
same,Ratio,[47],2
CC(C)c1ccc(CN2CCCN(CCc3cc(-c4cccs4)nc(-c4ccncc4)n3)CC2)cc1,MIC90,[1],2 µg/mL
same,MIC90,[2],2 µg/mL
same,MIC90,[3],2 µg/mL
same,Ratio,[39],50 - 100
same,MIC90,[4],2 µg/mL
same,MIC90,[5],2 µg/mL
same,MIC90,[6],2 µg/mL
same,MIC90,[7],2 µg/mL
same,MIC90,[8],2 µg/mL
same,Ratio,[40],>100
same,Ratio,[41],>100
same,Ratio,[42],>100
same,Ratio,[43],>100
same,MIC90,[9],2 µg/mL
same,MIC90,[10],2 µg/mL
same,MIC90,[11],2 µg/mL
same,MIC90,[12],2 µg/mL
same,MIC90,[13],2 µg/mL
same,MIC90,[14],2 µg/mL
same,MIC90,[15],2 µg/mL
same,MIC90,[16],2 µg/mL
same,MIC90,[17],2 µg/mL
same,MIC90,[18],2 µg/mL
same,MIC90,[19],4 µg/mL
same,MIC90,[20],2 µg/mL
same,MIC90,[21],2 µg/mL
same,MIC90,[22],2 µg/mL
same,MIC90,[23],2 µg/mL
same,MIC90,[24],2 µg/mL
same,MIC90,[25],2 µg/mL
same,MIC90,[26],2 µg/mL
same,MIC90,[27],2 µg/mL
same,MIC90,[28],2 µg/mL
same,MIC90,[29],2 µg/mL
same,MIC90,[30],2 µg/mL
same,MIC90,[31],2 µg/mL
same,MIC90,[32],2 µg/mL
same,MIC90,[33],2 µg/mL
same,MIC90,[34],2 µg/mL
same,MIC90,[35],2 µg/mL
same,MIC90,[36],2 µg/mL
same,MIC90,[37],2 µg/mL
same,MIC90,[38],2 µg/mL
same,MBC,[44],2 µg/mL
same,MBC,[45],4 µg/mL
same,MBC,[46],4 µg/mL
same,Ratio,[47],2
